Measured values taken from patent US9422264B2, “Carbamate-substituted oxindole derivatives and use thereof for the treatment of vasopressin-dependent diseases” (AbbVie Deutschland GmbH & Co. KG, priority 2007, dated 2016).

How the values were obtained:
[1] = target: T1, human vasopressin V1b receptor (Homo sapiens, UniProt P47901); experiment: Vasopressin V1b receptor binding assay; details: read-out: Ki(h-V1b)*
T1 construct: expressed in transfected cells; host or cells: CHO-K1 (cell line hV1b_3H2_CHO)
T1 sequence (P47901 1-424): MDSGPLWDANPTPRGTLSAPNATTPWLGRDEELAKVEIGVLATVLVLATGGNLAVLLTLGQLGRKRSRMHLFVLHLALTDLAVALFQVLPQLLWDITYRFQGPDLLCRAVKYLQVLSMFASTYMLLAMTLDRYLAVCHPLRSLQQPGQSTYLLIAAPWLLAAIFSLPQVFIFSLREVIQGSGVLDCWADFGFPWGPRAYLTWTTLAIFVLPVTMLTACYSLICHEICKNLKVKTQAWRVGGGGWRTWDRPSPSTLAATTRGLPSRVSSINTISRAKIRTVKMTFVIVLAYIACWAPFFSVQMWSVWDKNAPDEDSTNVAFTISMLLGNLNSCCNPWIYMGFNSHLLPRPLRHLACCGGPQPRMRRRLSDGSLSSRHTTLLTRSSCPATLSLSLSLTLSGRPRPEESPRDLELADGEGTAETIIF
Experimental: 1. Vasopressin V1b Receptor Binding Assay:
The substance concentration was further diluted 1:5 in the assay mixture (2% DMSO in the mixture).
All determinations were carried out as triplicate determinations.

[2] = target: T2, recombinant human oxytocin receptors (Homo sapiens, UniProt P30559); experiment: Oxytocin receptor binding assay; details: selectivity quotient, human OT versus human V1b
T2 construct: expressed in transfected cells; host or cells: HEK-293 (transient)
T2 sequence (P30559 1-389): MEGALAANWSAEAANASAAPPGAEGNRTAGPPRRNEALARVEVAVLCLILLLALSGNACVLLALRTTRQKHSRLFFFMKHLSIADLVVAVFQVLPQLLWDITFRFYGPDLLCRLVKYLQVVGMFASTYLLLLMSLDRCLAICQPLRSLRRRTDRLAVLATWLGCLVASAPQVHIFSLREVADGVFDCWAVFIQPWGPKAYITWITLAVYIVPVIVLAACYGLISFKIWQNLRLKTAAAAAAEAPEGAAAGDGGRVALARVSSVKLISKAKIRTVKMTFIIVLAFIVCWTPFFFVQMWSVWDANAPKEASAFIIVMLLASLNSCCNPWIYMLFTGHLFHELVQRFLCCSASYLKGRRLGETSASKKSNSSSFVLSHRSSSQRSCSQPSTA
Experimental: 4. Oxytocin Receptor Binding Assay
Confluent HEK-293 cells with transiently expressing recombinant human oxytocin receptors were centrifuged at 750×g at room temperature for 5 minutes. The residue was taken up in ice-cold lysis buffer (50 mM Tris-HCl, 10% glycerol, pH 7.4 and Roche complete protease inhibitor) and subjected to an osmotic shock at 4° C. for 20 minutes. The lyzed cells were then centrifuged at 750×g at 4° C. for 20 minutes, the residue was taken up in incubation buffer, and aliquots of 10^7 cells/ml were prepared. The aliquots were frozen at −80° C. until used.
On the day of the experiment, the cells were thawed, diluted with incubation buffer and homogenized using a Multipette Combitip (Eppendorf, Hamburg). […] The nonspecific binding was determined with 10^−6 M oxytocin (Bachem AG, H2510). Triplicate determinations were set up. Bound and free radioligand were separated by filtration under vacuum with Whatman GF/B glass fiber filters with the aid of a Skatron cell harvester 7000. The bound radioactivity was determined by liquid scintillation measurement in a Tricarb Beta counter, model 2000 or 2200CA (Packard).

[3] = Determination of the microsomal half-life / microsomal clearance (human liver microsomes); type: in vitro ADME; details: pH 7.4, 0.5 μM test substance
Experimental: 5. Determination of the Microsomal Half-Life:
The metabolic stability of the compounds of the invention was determined in the following assay.
The test substances were incubated in a concentration of 0.5 μM as follows:
0.5 μM test substance are preincubated together with liver microsomes from different species (from rat, human or other species) (0.25 mg of microsomal protein/ml) in 0.05 M potassium phosphate buffer of pH 7.4 in microtiter plates at 37° C. for 5 min. The reaction is started by adding NADPH (1 mg/mL). After 0, 5, 10, 15, 20 and 30 min, 50 μl aliquots are removed, and the reaction is immediately stopped and cooled with the same volume of acetonitrile. The samples are frozen until analyzed. The remaining concentration of undegraded test substance is determined by MSMS. The half-life (T½) is determined from the gradient of the signal of test substance/unit time plot, it being possible to calculate the half-life of the test substance, assuming first order kinetics, from the decrease in the concentration of the compound with time. The microsomal clearance (mCl) is calculated from mCl=In2/T½/(content of microsomal protein in mg/ml)×1000 […] (modified from references: Di, The Society for Biomoleculur Screening, 2003, 453-462; Obach, DMD, 1999 vol. 27. N 11, 1350-1359).

[4] = target: human vasopressin V1a receptor (Homo sapiens, UniProt P37288); experiment: Vasopressin V1a receptor binding assay; details: selectivity quotient, human V1a versus human V1b
human vasopressin V1a receptor, sequence (P37288 whole entry): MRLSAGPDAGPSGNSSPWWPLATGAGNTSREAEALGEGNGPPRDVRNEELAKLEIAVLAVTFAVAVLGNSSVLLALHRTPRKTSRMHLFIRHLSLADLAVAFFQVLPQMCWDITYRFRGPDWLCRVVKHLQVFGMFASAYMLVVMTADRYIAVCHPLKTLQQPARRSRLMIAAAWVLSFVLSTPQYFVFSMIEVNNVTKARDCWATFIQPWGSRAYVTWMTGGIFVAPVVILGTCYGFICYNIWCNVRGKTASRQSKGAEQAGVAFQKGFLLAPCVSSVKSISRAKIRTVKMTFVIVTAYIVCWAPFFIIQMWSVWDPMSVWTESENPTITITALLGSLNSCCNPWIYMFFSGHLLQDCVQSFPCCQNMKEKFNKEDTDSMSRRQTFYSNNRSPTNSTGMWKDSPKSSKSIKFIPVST

| Ki [1] [nM] | Ki(h-OT)/Ki(h-V1b)* [2] | microsomal CLint at 0.5 μM [3] [µL/min/mg] | Ki(h-V1a)/Ki(h-V1b)* [4] | SMILES |
| --- | --- | --- | --- | --- |
| < 10 | +++ (>45) | 75 to 200 | +++ (>75) | CCOc1ncccc1C1(OC(=O)N2CCC(N3CCN(CC)CC3)CC2)C(=O)N(S(=O)(=O)c2ccc(OC)cc2OC)c2ccc(C#N)cc21 (racemic) [Example 37, (±)-5-Cyano-1-[(2,4-dimethoxyphenyl)sulfonyl]-3-(2-ethoxypyridin-3-yl)-2-oxo-2,3-dihydro-1 H-indol-3-yl-4-(4-ethylpiperazin-1-yl)piperidine-1-carboxylate] |
| < 10 | +++ (>45) | 75 to 200 | +++ (>75) | CCOc1ncccc1C1(OC(=O)N2CCN(C3CCN(C)CC3)CC2)C(=O)N(S(=O)(=O)c2ccccc2OC)c2ccc(C#N)cc21 (racemic) [Example 2, (±)-5-Cyano-3-(2-ethoxypyridin-3-yl)-1-[(2-methoxyphenyl)sulfonyl]-2-oxo-2,3-dihydro-1H-indol-3-yl-4-(1-methylpiperidin-4-yl)piperazine-1-carboxylate] |
